From paper PMC12431657, “Discovery and mechanistic insights of dibenzoylmethane as a broad spectrum inhibitor of coronavirus” (PLOS Pathogens, 2025)
Where “and” joins values, the source holds several entries; their conditions need not be identical. Equal entries are not always repeated. Where two headings read alike, the source gives them in different places.

Key:
HCoV-229E = experiment: Antiviral activity in vitro, qRT-PCR, HCoV-229E in MRC-5 cells; format: cell-based; conditions: for HCoV-229E, MRC-5: inhibition at the concentration (Fig2B): replicates
HCoV-OC43 [1] = experiment: Antiviral activity in vitro, qRT-PCR, HCoV-OC43 in RD cells; format: cell-based; conditions: for EC50 (OC43, RD): inhibition at the concentration: replicates
enterovirus EV71 = format: cell-based
HCoV-OC43 [2] = experiment: Viral binding assay; format: cell-based; conditions: MOI of 50, on ice 2 hours
Description: To obtain further insight into the stage at which DBM inhibits the replication of HCoV-OC43 and other HCoVs, RD cells were incubated with compounds, including DBM, remdesivir (RDV), and chloroquine (CQ), at different stages of viral infection. Viral RNA from the supernatant was extracted and quantitatively analysed via qRT-PCR. […] For the viral binding assay, cells were cultured in the presence or absence of DBM at different concentrations for 1 hour before being infected with HCoV-OC43 at an MOI of 50, and then were placed on ice for 2 hours for the viral particles to bind to the membrane of the host cells, followed by washing with PBS. […] In addition to binding to receptors from host cells, the spike proteins of HCoV-OC43 could also trigger membrane fusion when HCoV-OC43 spike plasmid-transfected 293T cells were seeded together with RD cells as target cells, and the addition of DBM had no effect on this process (S5C Fig). […] To determine whether DBM influences viral release, we quantified viral RNA both intracellularly and in the supernatant.
The cells were seeded onto 24-well plates and incubated overnight at 37 °C. […] The cells were washed three times with PBS before total RNA was extracted and analysed by qRT-PCR as previously described.

HCoV-OC43 [3] = format: cell-based
HCoV-OC43 [4] = experiment: microbe, parasite or virus in culture; format: cell-based
HCoV-OC43 [5] = experiment: Antiviral activity of DBM in the presence of IFN signalling suppressants; format: cell-based
Description: Fig 6 DBM-mediated downregulation of caspase-6 restores IFN signalling suppressed by the coronavirus nucleocapsid protein. A) Intracellular levels of HCoV-OC43 nucleocapsid proteins and caspase-6 in HCoV-OC43-infected cells treated with serially diluted DBM or Z-VEID-FMK. Cells were pretreated with gradient-diluted DBM or Z-VEID-FMK prior to viral infection. B) Inhibitory effects of DBM against HCoV-OC43 and EV71. Cells were pre-treated with gradient-diluted DBM for 1 hour before inoculated with HCoV-OC43 or EV71, respectively. C) Attenuation of antiviral effects of DBM in IFN signalling-deficient cell lines. HEK293T-AT and Vero E6 cells were pre-treated with gradient-diluted DBM for 1 hour before infection. […] Cells were pretreated with gradient-diluted DBM or Z-VEID-FMK for 24 h, and then transfected with coronaviruses nucleocapsid proteins expression plasmid, and after 16 h of transfection, cells were treated with DMSO or STS. E) DBM alleviated the suppression of IFNB1 expression induced by coronaviruses nucleocapsid proteins and caspase-6. Cells were pretreated with DMSO or DBM for 24 h, subsequently, transfected with Poly(I:C) and plasmids. F) Impact of IFN signalling suppressants on the antiviral activity of DBM. Cells were pretreated with DMSO, Ruxolitinib or IFN alpha-IFNAR-IN-1 hydrochloride, respectively, for 1 hour. Subsequently, a gradient dilution of DBM was added to the medium, and then HCoV-OC43 was inoculated into the cells. Data were statistically analysed with Student’s T test. *: p ≤ 0.05, **: p ≤ 0.01, ***: p ≤ 0.001, ****: p ≤ 0.0001; ns, not significant. The experiments were repeated three times independently with similar results.
On the basis of this finding, we hypothesized that DBM downregulates caspase-6, reduces the cleavage of nucleocapsid proteins, and thereby enhances IFN signalling to inhibit viral replication. To test this hypothesis, we incubated cells transfected with plasmids expressing coronavirus nucleocapsid proteins in the presence or absence of DBM or Z-VEID-FMK. […] As the reduction in cleaved nucleocapsid protein fragments could theoretically […] IFN signalling, we sought to investigate the relationship between DBM treatment and IFN signalling. To this end, we further transfected cells with plasmids expressing both caspase-6 and coronavirus nucleocapsid proteins, and subsequently incubated the cells with or without DBM. […] Whereas the other two apoptosis-executing caspases, caspase-3 and caspase-7, could not inhibit IFN signalling in a similar system (S8C Fig). Furthermore, we examined the expression of IFNB1 and its downstream IFN-stimulated genes following DBM treatment in the context of HCoV-OC43 infection (S8D and S8E Fig).

mammary tumorigenesis = test system: mammary tumorigenesis; design: method as in PMID 11403916; conditions: dietary DBM, mice; cited from earlier work

O=C(CC(=O)c1ccccc1)c1ccccc1 [DBM, dibenzoylmethane]
EC50 (HCoV-229E; Human coronavirus 229E, MRC5, 24 h, read-out: EC50 HCoV-229E (MRC-5)): 700 nM | HCoV-229E, MRC-5: inhibition at the concentration (Fig2B) (HCoV-229E; conc. 0.1 (unit not given)): 0.8 and 1.1 and 0.3 | HCoV-229E, MRC-5: inhibition at the concentration (Fig2B) (HCoV-229E; conc. 0.2 (unit not given)): 1.4 and -2.2 and 0.6 | HCoV-229E, MRC-5: inhibition at the concentration (Fig2B) (HCoV-229E; conc. 0.7 (unit not given)): 17.4 and 32.7 and 56.6 | HCoV-229E, MRC-5: inhibition at the concentration (Fig2B) (HCoV-229E; conc. 2.2 (unit not given)): 69.7 and 42.7 and 53.8 | HCoV-229E, MRC-5: inhibition at the concentration (Fig2B) (HCoV-229E; conc. 6.7 (unit not given)): 86.0 and 92.7 and 89.8 | HCoV-229E, MRC-5: inhibition at the concentration (Fig2B) (HCoV-229E; conc. 20.0 (unit not given)): 94.3 and 95.3 and 95.9 | EC50 (HCoV-OC43 [1]; Betacoronavirus 1, OC43, RD, 24 h, read-out: EC50 HCoV-OC43 (RD)): 350 nM | Viral RNA copies (Fig6B) (HCoV-OC43 [1]; OC43, concentration 4): 7.43E+03 and 9.55E+03 and 9.54E+03 | Viral RNA copies (Fig6B) (HCoV-OC43 [1]; OC43, concentration 20): 3.88E+03 and 6.38E+03 and 7.34E+03 | EC50 (OC43, RD): inhibition at the concentration (HCoV-OC43 [1]; conc. 0.1 (unit not given)): -75.5 and -76.6 and -100.8 | EC50 (OC43, RD): inhibition at the concentration (HCoV-OC43 [1]; conc. 0.2 (unit not given)): 23.1 and 21.4 and 22.1 | EC50 (OC43, RD): inhibition at the concentration (HCoV-OC43 [1]; conc. 0.7 (unit not given)): 88.5 and 91.5 and 92 | EC50 (OC43, RD): inhibition at the concentration (HCoV-OC43 [1]; conc. 2.2 (unit not given)): 99.6 | EC50 (OC43, RD): inhibition at the concentration (HCoV-OC43 [1]; conc. 6.7 (unit not given)): 99.9 | EC50 (OC43, RD): inhibition at the concentration (HCoV-OC43 [1]; conc. 20 (unit not given)): 99.8 | antiviral activity against EV71 (enterovirus EV71): no antiviral activity | viral binding (HCoV-OC43 [2]): did not interfere | antiviral activity in CASP6 knockout cell pools (HCoV-OC43 [3]; RD cells): decreased | Viral inhibition (Fig5K) (HCoV-OC43 [3]; concentration 2, RD-CASP6 KO cells): 35.0 and 37.4 and 35.2 | Viral inhibition (Fig5K) (HCoV-OC43 [3]; concentration 2, RD-Scramble cells): 87.9 and 90.6 and 92.3 | Viral inhibition (Fig5K) (HCoV-OC43 [3]; concentration 20, RD-Scramble cells): 81.0 and 81.9 and 83.3 | resistance of the virus after consecutive passages (HCoV-OC43 [4]; 17 consecutive passages in the presence of DBM): did not develop significant resistance | EC50 (HCoV-OC43 [4]; Betacoronavirus 1, OC43, read-out: EC50 of DBM against HCoV-OC43 passaged with DBM): 850 nM | EC50 (HCoV-OC43 [4]; Betacoronavirus 1, OC43, read-out: EC50 of DBM against HCoV-OC43 passaged with DMSO): 570 nM | viral inhibition (HCoV-OC43 [4]; DBM (virus passaged with DBM), concentration 1.7): 93.4 and 85.2 | viral inhibition (HCoV-OC43 [4]; DBM (virus passaged with DBM), concentration 5.0): 99.5 | viral inhibition (HCoV-OC43 [4]; column head DMSO (virus passaged with DMSO), concentration 5.0): 100.0 | Viral RNA copies (Fig6F) (HCoV-OC43 [5]; DBM 0.06, with DMSO): 8575323 and 7173199 and 8361273 | Viral RNA copies (Fig6F) (HCoV-OC43 [5]; DBM 0.06, with IFNi): 714000 and 1370000 and 1200000 | Viral RNA copies (Fig6F) (HCoV-OC43 [5]; DBM 0.19, with DMSO): 4042565 and 5441926 and 4875856 | Viral RNA copies (Fig6F) (HCoV-OC43 [5]; DBM 0.19, with IFNi): 1160000 and 961000 and 754000 | Viral RNA copies (Fig6F) (HCoV-OC43 [5]; DBM 0.19, with RUX): 1920000 and 2400000 and 1530000 | Viral RNA copies (Fig6F) (HCoV-OC43 [5]; DBM 0.56, with DMSO): 380096 and 713734 and 725626 | Viral RNA copies (Fig6F) (HCoV-OC43 [5]; DBM 0.56, with IFNi): 1150000 and 922000 and 1030000 | Viral RNA copies (Fig6F) (HCoV-OC43 [5]; DBM 0.56, with RUX): 1380000 and 2020000 and 2160000 | Viral RNA copies (Fig6F) (HCoV-OC43 [5]; DBM 1.67, with DMSO): 91512 and 73409 and 91292 | Viral RNA copies (Fig6F) (HCoV-OC43 [5]; DBM 1.67, with IFNi): 807000 and 1340000 | Viral RNA copies (Fig6F) (HCoV-OC43 [5]; DBM 1.67, with RUX): 2040000 and 3700000 | Viral RNA copies (Fig6F) (HCoV-OC43 [5]; DBM 5.00, with DMSO): 87392 and 81273 and 92455 | Viral RNA copies (Fig6F) (HCoV-OC43 [5]; DBM 5.00, with IFNi): 1300000 and 976000 and 920000 | Viral RNA copies (Fig6F) (HCoV-OC43 [5]; DBM 5.00, with RUX): 1880000 and 1760000 and 2040000 | antiviral activity of DBM, cells pretreated with IFN alpha-IFNAR-IN-1 hydrochloride (HCoV-OC43 [5]; HCoV-OC43): markedly reduced | antiviral activity of DBM, cells pretreated with ruxolitinib (HCoV-OC43 [5]; HCoV-OC43): markedly reduced | reduction of tumor incidence (mammary tumorigenesis): 97%
